Results reported in US9388139B2, “Derivatives of celeboxib, use thereof and preparation thereof” (German University, priority 2011, dated 2016).

Legend:
COX1 = COX1 (Ovis aries (Sheep), UniProt P05979); assay: COX-1 activity, colorimetric assay; assay type: biochemical, ovine; conditions: screening dose 100 μM; read-out: IC50 μM against COX1
Procedure: (§1) Compounds according to the present disclosure were tested for their in vitro ability to inhibit recombinant human PDE5, COX1 and COX2 enzymes at screening doses of 50, 100 and 100 μM respectively.
(§2) COX-1 and COX-2 activities were measured using purified ovine COX-1 and COX-2 with colorimetric assay kits obtained from Cayman Chemical Co. (Ann Arbor, Mich.). The activities of COX-1 and COX-2 were measured after the addition of arachidonic acid and incubation at 25° C. for 5 min by absorbance at 590 nm as specified by the manufacturer.

COX2 = COX2 (Ovis aries (Sheep), UniProt P79208); assay: COX-2 activity, colorimetric assay; assay type: biochemical, ovine; conditions: screening dose 100 μM; read-out: IC50 μM against COX2
Sequence of COX2 (P79208 17-603): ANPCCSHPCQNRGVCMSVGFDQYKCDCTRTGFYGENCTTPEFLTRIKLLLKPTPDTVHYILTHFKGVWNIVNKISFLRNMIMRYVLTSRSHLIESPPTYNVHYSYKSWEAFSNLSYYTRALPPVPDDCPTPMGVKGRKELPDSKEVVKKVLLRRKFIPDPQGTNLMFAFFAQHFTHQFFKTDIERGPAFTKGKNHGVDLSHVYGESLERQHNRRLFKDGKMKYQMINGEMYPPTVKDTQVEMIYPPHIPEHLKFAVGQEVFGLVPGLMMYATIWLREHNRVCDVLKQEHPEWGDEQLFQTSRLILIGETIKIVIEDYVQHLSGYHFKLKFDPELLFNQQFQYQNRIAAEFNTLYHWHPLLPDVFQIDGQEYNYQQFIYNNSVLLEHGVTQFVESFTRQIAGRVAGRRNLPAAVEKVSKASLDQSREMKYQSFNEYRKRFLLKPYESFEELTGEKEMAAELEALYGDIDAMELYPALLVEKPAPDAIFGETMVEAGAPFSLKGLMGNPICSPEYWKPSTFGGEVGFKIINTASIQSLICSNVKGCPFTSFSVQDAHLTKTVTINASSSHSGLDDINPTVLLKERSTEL
Procedure: as §1, §2

[1] = tested on: human breast MDA-MB-231 tumor cell line; assay: Tumor cell growth assay (Cell Titer Glo); assay type: cell-based; conditions: MDA-MB-231, 72 hours, read-out: IC50 μM against MDA-MB-231
[2] = tested on: human colorectal HT-29 tumor cell line; assay: Tumor cell growth assay (Cell Titer Glo); assay type: cell-based; conditions: HT-29, 72 hours, read-out: IC50 μM against HT-29
PDE2A = PDE2A (Homo sapiens (Human), UniProt O00408); assay: PDE isozyme selectivity, IMAP assay; assay type: biochemical
Sequence of PDE2A (O00408 whole entry, species assumed): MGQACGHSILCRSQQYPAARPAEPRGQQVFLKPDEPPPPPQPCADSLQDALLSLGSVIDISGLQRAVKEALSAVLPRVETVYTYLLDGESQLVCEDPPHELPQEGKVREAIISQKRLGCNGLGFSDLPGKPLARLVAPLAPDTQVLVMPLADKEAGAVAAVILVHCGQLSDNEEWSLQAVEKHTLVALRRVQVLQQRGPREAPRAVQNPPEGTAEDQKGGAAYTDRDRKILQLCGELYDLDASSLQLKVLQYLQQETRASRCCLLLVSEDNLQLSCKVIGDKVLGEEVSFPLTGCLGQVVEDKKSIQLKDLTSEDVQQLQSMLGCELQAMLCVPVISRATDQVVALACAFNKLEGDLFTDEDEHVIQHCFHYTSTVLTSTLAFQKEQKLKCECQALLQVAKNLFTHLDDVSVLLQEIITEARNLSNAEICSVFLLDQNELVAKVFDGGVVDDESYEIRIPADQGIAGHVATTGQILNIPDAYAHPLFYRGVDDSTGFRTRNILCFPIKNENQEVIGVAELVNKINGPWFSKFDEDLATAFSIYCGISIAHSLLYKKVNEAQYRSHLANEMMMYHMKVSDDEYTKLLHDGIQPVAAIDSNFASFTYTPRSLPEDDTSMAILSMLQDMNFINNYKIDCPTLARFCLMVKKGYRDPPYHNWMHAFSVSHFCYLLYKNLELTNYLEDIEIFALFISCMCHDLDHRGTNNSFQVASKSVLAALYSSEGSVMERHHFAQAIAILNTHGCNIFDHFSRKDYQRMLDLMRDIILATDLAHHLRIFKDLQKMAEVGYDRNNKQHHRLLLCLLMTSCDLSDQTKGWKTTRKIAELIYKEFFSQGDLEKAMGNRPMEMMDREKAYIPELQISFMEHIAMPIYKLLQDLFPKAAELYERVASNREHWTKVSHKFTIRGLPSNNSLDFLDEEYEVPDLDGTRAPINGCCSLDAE
Procedure: PDE activity was measured using the IMAP fluorescence polarization assay (Molecular Devices) in which binding of hydrolyzed cyclic nucleotide substrate to immobilized metal coordination complexes increases fluorescence polarization (FP). Tetramethylrhodamine (TAMRA)-cGMP and fluorescein-cAMP were used as substrates, each at final concentration of 50 nmol/L. The PDE assay was done according to the manufacturer's specifications using either whole cell lysates or recombinant enzymes.

786-0 = assay: Tumor cell growth inhibition panel; assay type: cell-based; conditions: Homo sapiens, Renal
Procedure: (§3) Thus, compound 12 is able to show broad spectrum tumor cell growth inhibitory activity independent of cyclooxygenase inhibition, whereas PDE5 may be the major contributor to such activity.
(§4) The human tumor cell lines were purchased from the American Type Culture Collection (Mansassas, Va.) and maintained in RPMI-1640+2.0 g/L glucose pH 7.4+5% FBS+4 mM glutamine (complete growth medium), incubated at 37° C. in 5% CO2, and passaged at subconfluent density. The human fetal colon FHC cells were cultured in DMEM:F12 medium supplemented with 10% FBS, cholera toxin (10 ng/mL), 5 μg/ml transferrin, 5 μg/ml insulin, and 100 ng/ml hydrocortisone. The passage number was routinely limited to approximately 20 and morphology monitored with each passage, but no additional authentication of the cell lines was performed.
(§5) Cells were plated in 96-well microtiter plates at a density of 5,000 cells per well and allowed to adhere overnight prior to treatment. Cells were treated with a 2-log concentration range of either SS or SBA and incubated for an additional 72 hours. For siRNA assays, cells were transfected in OptiMEM media with 0.5% SureFECT transfection reagent and 200 nmol/L of either negative control or PDE5 siRNA and incubated at 37° C. for 24 h prior to treatment. At the end of the incubation period, relative cell viability was compared to vehicle controls using the Cell Titer Glo Assay (Promega, Madison Wis.), which measures viable cells based on ATP content, according to the manufacturer's specifications.

A498 = assay: Tumor cell growth inhibition panel; assay type: cell-based; conditions: Homo sapiens, Renal
Procedure: as §3, §4, §5

A549 = assay: Tumor cell growth inhibition panel; assay type: cell-based; conditions: Homo sapiens, Lung
Procedure: as §3, §4, §5

CAKI-1 = assay: Tumor cell growth inhibition panel; assay type: cell-based; conditions: Homo sapiens, Renal
Procedure: as §3, §4, §5

COL0205 = assay: Tumor cell growth inhibition panel; assay type: cell-based; conditions: Homo sapiens, Colon
Procedure: as §3, §4, §5

EKVX = assay: Tumor cell growth inhibition panel; assay type: cell-based; conditions: Homo sapiens, Lung
Procedure: as §3, §4, §5

HCC-2998 = assay: Tumor cell growth inhibition panel; assay type: cell-based; conditions: Homo sapiens, Colon
Procedure: as §3, §4, §5

HCT-116 = assay: Tumor cell growth inhibition panel; assay type: cell-based; conditions: Homo sapiens, Colon
Procedure: as §3, §4, §5

HOP-92 = assay: Tumor cell growth inhibition panel; assay type: cell-based; conditions: Homo sapiens, Lung
Procedure: as §3, §4, §5

HT29 = assay: Tumor cell growth inhibition panel; assay type: cell-based; conditions: Homo sapiens, HT-29, Colon
Procedure: as §3, §4, §5

Hs578T = assay: Tumor cell growth inhibition panel; assay type: cell-based; conditions: Homo sapiens, Hs-578T, Breast
Procedure: as §3, §4, §5

IGROV-1 = assay: Tumor cell growth inhibition panel; assay type: cell-based; conditions: Homo sapiens, Ovarian
Procedure: as §3, §4, §5

M14 = assay: Tumor cell growth inhibition panel; assay type: cell-based; conditions: Homo sapiens, Melanoma
Procedure: as §3, §4, §5

MALME-3M = assay: Tumor cell growth inhibition panel; assay type: cell-based; conditions: Homo sapiens, Melanoma
Procedure: as §3, §4, §5

MDA-MB-435 = assay: Tumor cell growth inhibition panel; assay type: cell-based; conditions: Homo sapiens, Melanoma
Procedure: as §3, §4, §5

NCI-ADR/RES = assay: Tumor cell growth inhibition panel; assay type: cell-based; conditions: Homo sapiens; Other, NCI-ADR/RES (adriamycin resistant)
Procedure: as §3, §4, §5

NCI-H23 = assay: Tumor cell growth inhibition panel; assay type: cell-based; conditions: Homo sapiens, Lung
Procedure: as §3, §4, §5

NCI-H460 = assay: Tumor cell growth inhibition panel; assay type: cell-based; conditions: Homo sapiens, Lung
Procedure: as §3, §4, §5

OVCAR-3 = assay: Tumor cell growth inhibition panel; assay type: cell-based; conditions: Homo sapiens, Ovarian
Procedure: as §3, §4, §5

OVCAR-5 = assay: Tumor cell growth inhibition panel; assay type: cell-based; conditions: Homo sapiens, Ovarian
Procedure: as §3, §4, §5

RXF-393 = assay: Tumor cell growth inhibition panel; assay type: cell-based; conditions: Homo sapiens, Renal
Procedure: as §3, §4, §5

SF-295 = assay: Tumor cell growth inhibition panel; assay type: cell-based; conditions: Homo sapiens, CNS
Procedure: as §3, §4, §5

SF-539 = assay: Tumor cell growth inhibition panel; assay type: cell-based; conditions: Homo sapiens, CNS
Procedure: as §3, §4, §5

SKOV-3 = assay: Tumor cell growth inhibition panel; assay type: cell-based; conditions: Homo sapiens, SK-OV-3, Ovarian
Procedure: as §3, §4, §5

T-47D = assay: Tumor cell growth inhibition panel; assay type: cell-based; conditions: Homo sapiens, T47D, Breast
Procedure: as §3, §4, §5

TK-10 = assay: Tumor cell growth inhibition panel; assay type: cell-based; conditions: Homo sapiens, Renal
Procedure: as §3, §4, §5

UO-31 = assay: Tumor cell growth inhibition panel; assay type: cell-based; conditions: Homo sapiens, Renal
Procedure: as §3, §4, §5

[3] = tested on: human tumor cell lines of different origins; assay: Tumor cell growth inhibition panel, overall; assay type: cell-based; conditions: in words; including the adriamycin resistant cell line ADR/NCl-RES
Procedure: as §3, §4
Cells were plated in 96-well microtiter plates at a density of 5,000 cells per well and allowed to adhere overnight prior to treatment. Cells were treated with a 2-log concentration range of either SS or SBA and incubated for an additional 72 hours. For siRNA assays, cells were transfected in OptiMEM media with 0.5% SureFECT transfection reagent and 200 nmol/L of either negative control or PDE5 siRNA and incubated at 37° C. for 24 h prior to treatment. […]

Sequence of COX1 (P05979 25-600): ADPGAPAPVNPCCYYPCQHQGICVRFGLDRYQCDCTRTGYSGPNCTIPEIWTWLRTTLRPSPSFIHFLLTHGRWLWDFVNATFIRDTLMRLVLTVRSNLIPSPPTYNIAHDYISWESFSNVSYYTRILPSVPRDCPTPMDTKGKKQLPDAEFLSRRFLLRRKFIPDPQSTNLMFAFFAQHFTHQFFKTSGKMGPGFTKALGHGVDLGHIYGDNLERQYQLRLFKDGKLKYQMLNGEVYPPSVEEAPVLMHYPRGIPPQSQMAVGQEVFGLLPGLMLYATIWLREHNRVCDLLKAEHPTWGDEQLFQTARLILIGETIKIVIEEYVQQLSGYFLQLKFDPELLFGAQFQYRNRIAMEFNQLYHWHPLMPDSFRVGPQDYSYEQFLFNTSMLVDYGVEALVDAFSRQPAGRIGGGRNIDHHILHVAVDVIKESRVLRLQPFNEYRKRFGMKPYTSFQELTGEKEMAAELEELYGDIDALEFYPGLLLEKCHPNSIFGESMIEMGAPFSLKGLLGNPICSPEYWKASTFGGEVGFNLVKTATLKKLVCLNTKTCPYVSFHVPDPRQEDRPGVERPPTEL

## CC(C)(C)C1=NN(c2ccc(C(=O)O)cc2)C(c2ccc(Cl)cc2Cl)C1 (stereo not shown) [Compound 12, 4-(3-(tert-Butyl)-5-(2,4-dichlorophenyl)-4,5-dihydro-1H-pyrazol-1-yl)benzoic acid]
COX1
  IC50: > 100 µM
COX2
  IC50: > 100 µM
[1]
  IC50: > 50 µM
[2]
  IC50: 29.8 µM
PDE2A; substrate cAMP
  IC50: > 50 µM
PDE2A; substrate cGMP
  IC50: > 50 µM
786-0
  IC50: 46.4 µM
A498
  IC50: 33 µM
A549
  IC50: 58 µM
CAKI-1
  IC50: 87 µM
COL0205
  IC50: 31.3 µM
EKVX
  IC50: 57.2 µM
HCC-2998
  IC50: 41.9 µM
HCT-116
  IC50: 39 µM
HOP-92
  IC50: 52.8 µM
HT29
  IC50: 29.8 µM
Hs578T
  IC50: 48.9 µM
IGROV-1
  IC50: 59 µM
M14
  IC50: 62.9 µM
MALME-3M
  IC50: 65.7 µM
MDA-MB-435
  IC50: 50.8 µM
NCI-ADR/RES
  IC50: 57.2 µM
NCI-H23
  IC50: 40.6 µM
NCI-H460
  IC50: 42.9 µM
OVCAR-3
  IC50: 37.8 µM
OVCAR-5
  IC50: 59.4 µM
RXF-393
  IC50: 46.7 µM
SF-295
  IC50: 45.8 µM
SF-539
  IC50: 52.9 µM
SKOV-3
  IC50: 87.4 µM
T-47D
  IC50: 63 µM
TK-10
  IC50: 74 µM
UO-31
  IC50: 55.7 µM
[3]
  tumor cell growth inhibitory activity: broad spectrum growth inhibitory activity
